Measurements published in ChEMBL document CHEMBL4229475, “Synthesis of novel imidazopyridines and their biological evaluation as potent anticancer agents: A promising candidate for glioblastoma” (Bioorg Med Chem Lett, 2018).
pIC50: −log10 of the molar value. Calls of active or inactive are those of the source. The rule behind the calls is not given here.

How the values were obtained:
LN-405 [1] = experiment: Cytotoxicity against human LN405 cells assessed as decrease in cell viability at 100 uM after 96 hrs by MTT assay; format: functional, cell-based
[2] = Cytotoxicity against human WS1 cells assessed as decrease in cell viability after 96 hrs by MTT assay; format: cell-based; details: WS1, 96 h
LN-405 [3] = experiment: Cell cycle arrest in human LN405 cells assessed as decrease in cell levels at S phase at IC50 after 72 hrs by propidium iodide staining-based flow cytometric method; format: functional
LN-405 [4] = experiment: Cytotoxicity against human LN405 cells assessed as cell viability at 100 uM after 96 hrs by MTT assay relative to control; format: functional; details: LN-405, 96 h, read-out: Activity
LN-405 [5] = experiment: Cell cycle arrest in human LN405 cells assessed as accumulation at G0/G1 phase at IC50 after 72 hrs by propidium iodide staining-based flow cytometric method relative to control; format: functional
LN-405 [6] = experiment: Induction of DNA damage in human LN405 cells assessed as cell with damage DNA at IC50 after 72 hrs by COMET assay (reference value: 0.7%); format: functional
LN-405 [7] = experiment: Cytotoxicity against human LN405 cells assessed as decrease in cell viability after 96 hrs by MTT assay; format: functional, cell-based; details: LN-405, 96 h

SMILES: CC1CCN(c2cc(-c3ccc(Br)cc3)c3nc(-c4ccc(Br)cc4)cn3c2)CC1
- Activity (LN-405 [1]): inactive

SMILES: CC1CCN(c2cc(-c3ccc(-c4ccccc4)cc3)c3nc(-c4ccc(-c5ccccc5)cc4)cn3c2)CC1
- Activity (LN-405 [1]): inactive

SMILES: CC1CCN(c2cc(-c3ccccc3)c3nc(-c4ccccc4)cn3c2)CC1
- pIC50 [2]: 3.32
- Activity (LN-405 [3]): Active
- viability at 100 µM (LN-405 [4]): 6%
- Activity (LN-405 [5]): 99.2%
- Activity (LN-405 [6]): 14%
- pIC50 (LN-405 [7]): 5.00

SMILES: CC1CCN(c2cc(-c3ccc(F)cc3)c3nc(-c4ccc(F)cc4)cn3c2)CC1
- pIC50 [2]: 3.07
- Activity (LN-405 [3]): Active
- viability at 100 µM (LN-405 [4]): 32%
- Activity (LN-405 [5]): 98.2%
- Activity (LN-405 [6]): 0.9%
- pIC50 (LN-405 [7]): 4.12

SMILES: CC1CCN(c2cc(-c3ccc(Br)s3)c3nc(-c4ccc(Br)s4)cn3c2)CC1
- Activity (LN-405 [1]): inactive

SMILES: CC1CCN(c2cc(-c3ccc4ccccc4c3)c3nc(-c4ccc5ccccc5c4)cn3c2)CC1
- Activity (LN-405 [1]): inactive

SMILES: CC1CCN(c2cc(-c3cccs3)c3nc(-c4cccs4)cn3c2)CC1
- Activity (LN-405 [1]): inactive

SMILES: COc1ccc(-c2cn3cc(N4CCC(C)CC4)cc(-c4ccc(OC)cc4)c3n2)cc1
- viability at 100 µM (LN-405 [4]): 80%
